Patent US5624924A, “Quinobenzothiazine antineoplastic agents” (priority 1994, dated 1997)
In brackets after ≈: the same amount, converted by molar mass. Where a name gives a salt, the structure may show the parent alone. Read-outs that look alike come from different tables or passages of the source.

Tests used:
[1] = system: A549 human lung cancer cell line; assay: In vitro cytotoxicity (MTT), A549; type: cell-based; settings: A549, 72 h
Procedure: (§1) Metabolic activity was measured by the cells' ability to reduce the tetrazolium dye, 3-(4,5-dimethylthiazol-2-yl)-2,5-diphenyltetrazolium bromide (MTT), to a quantifiable colored formasan derivative. Surviving cells reduce the MTT dye. The inhibitory concentrations of killing 50% of the cells (IC50 s) were calculated. Testing was in accord with the following protocol:
(§2) Test compounds and a reference antineoplastic agent, ADRIAMYCIN (doxorubicin hydrochloride), were dissolved in dimethyl sulfoxide (DMSO) and diluted, first with Earle's Balanced Salt Solution, followed by culture medium, to twice the highest concentration of the compound to be tested. From this concentrated stock, two-fold serial dilutions were prepared in 96-well microtiter trays, each well containing twice the desired final concentration of the compound. Each concentration was tested in triplicate and compared to triplicate drug-free controls.
(§3) The cells were grown in the same medium used for diluting the compounds. Adherent cells were harvested by trypsinization according to the following procedure:
(§4) After harvesting by trypsinization, viable cell counts were determined and cell density was adjusted to 25,000 cells/mL. Inoculum (0.1 mL) was then added to each well for a final concentration of 2,500 cells per well. Addition of the inoculum was used to dilute the test compounds to the desired concentration.
(§5) Microtiter trays were incubated for three days at 36° C. in a humidified atmosphere containing 5% carbon dioxide.
(§6) After three days, 20 microliters of 5 mg/mL MTT in phosphate-buffered solution were added to each well of the microtiter trays. The microtiter trays were then returned to the incubator for two to four hours to allow the surviving cells to reduce the dye. After this incubation, both the medium and the unreduced dye were removed by aspiration. DMSO was added to each well to dissolve the water-insoluble, colored end product of the dye reduction for spectrophotometric measurement at 570 nm.
(§7) The results obtained which clearly show the cytotoxicity of the compounds of Examples 5, 6, 7 and 8 against […] tumor cell lines A549, HCT-8, HT-29 and P388-D1, are illustrated in Table 1. (A549 is a human lung cancer cell line; HCT-8 is a human colon cancer cell line; HT-29 is a human colon cancer cell line; and P388-D1 is a mouse leukemia cell line.)

[2] = system: HCT-8 human colon cancer cell line; assay: In vitro cytotoxicity (MTT), HCT-8; type: cell-based; settings: HCT-8, 72 h, read-out: In Vitro Cytotoxicity (IC50)
Procedure: as §1, §2, §3
as §4, with “concentration. […]” for “concentration.”

[3] = system: HT-29 human colon cancer cell line; assay: In vitro cytotoxicity (MTT), HT-29; type: cell-based; settings: HT-29, 72 h
Procedure: as §1, §2, §3, §4, §5, §6, §7

[4] = system: P388-D1 mouse leukemia cell line; assay: In vitro cytotoxicity (MTT), P388-D1; type: cell-based; settings: for IC50: Mus musculus, P388D1, 72 h, read-out: In Vitro Cytotoxicity (IC50), P388-D1
Procedure: as §1, §2, §3, §4, §5, §6, §7

[5] = system: P388 mouse leukemia cell line; assay: In vitro cytotoxicity (MTT), P388; type: cell-based; settings: P388, 72 h, read-out: In Vitro Cytotoxicity (IC50)
Procedure: as §1, §2, §3, §4, §5, §6
(§8) Compounds from Examples 4, 6, 8, 9 and 10 were additionally tested against human and murine tumor cell lines A549, HT-29, P388-D1, P388, P388-ADR(0.0), P388-ADR(0.1) and B16F109. (P388 is a mouse leukemia cell line similar to P388-D1, but animal-passaged; P388-ADR (0.0) is an ADRIAMYCIN-resistant variant of P388, the inoculum of which is grown in drug-free medium; P388-ADR (0.1) is an ADRIAMYCIN-resistant variant of P388, the inoculum of which is grown in medium with 0.1 mcg.ml ADRIAMYCIN; and B16F10 is a mouse melanoma.) The results are presented in Table 2; as shown in the table, the compounds of the present invention are effective cytotoxic agents even against the ADRIAMYCIN-resistant cell line P388-ADR.

[6] = system: P388-ADR(0.0), ADRIAMYCIN-resistant variant of P388; assay: In vitro cytotoxicity (MTT), P388-ADR(0.0); type: cell-based; settings: Mus musculus, 72 h, inoculum grown in drug-free medium, Table 2
Procedure: as §1, §2, §3, §4, §5, §6, §8

[7] = system: B16F10 mouse melanoma; assay: In vitro cytotoxicity (MTT), B16F10; type: cell-based; settings: B16-F10, 72 h, read-out: In Vitro Cytotoxicity (IC50)
Procedure: as §1, §2, §3, §4, §5, §6, §8

[8] = system: P388 ascitic leukemia; assay: In vivo activity against systemic tumor P388; design: species or system mouse; settings: five days
Procedure: Prior to testing, P388 was propagated intraperitoneally in female DBA2 mice. The ascitic tumors were intraperitoneally injected in female B6 D2 F1 mice at a concentration of 10^6 cells per mouse. The mice were treated with antiumor agents administered once daily for five consecutive days, with the antineoplastic 5-fluorouracil used as a positive control.
All drugs were administered intraperitoneally in 5% aqueous dextrose or other suitable diluent. Drug efficacy was evaluated based on prolongation of mean survival time (MST). Improvement of MST was calculated as % MST(T/C), the percent ratio of mean survival times of test (T) versus control (C) mice. Compounds having % MST(T/C) values greater than 125 are considered to have significant activity. The antitumor activity of the two compounds in the P388 systemic leukemia model is illustrated in Table 3 below.

[9] = system: C-26 colon adenocarcinoma; assay: In vivo activity against C-26 colon adenocarcinoma implanted IP (Example 42); design: species or system mouse; settings: dose 40, IP days 1, 5, 9
Procedure: In the case of C-26 colon adenocarcinema, the tumor was implanted IP into mice on day 0. The compound to be tested. (the compound of Example 8) was administered IP at days 1, 5, and 9 and the results recorded on day 60. % MST(T/C) values were calculated as before and are shown below for two separate trials.

[10] = system: M5076 ovarian sarcoma; assay: In vivo activity against M5076 ovarian sarcoma implanted subcutaneously; design: species or system mouse; settings: IP every 2 days, days 1-11
Procedure: For M5076 ovarian sarcoma, the solid tumor was implanted subcutaneously into mice on day 0. The compound to be tested (the compound of Example 8) was administered IP every 2 days up to day 11, starting on day 1. Both % MST(T/C) and % MTM(T/C) values were calculated, and are presented below.

[11] = Aqueous solubility; type: physicochemical; settings: water
Description: The effect of peptidyl substitution on the solubility of the compounds of the invention was examined by dissolving samples thereof in water.

[12] = system: P388-ADR(0.1), ADRIAMYCIN-resistant variant of P388; assay: In vitro cytotoxicity (MTT), P388-ADR(0.1); type: cell-based; settings: Mus musculus, 72 h, inoculum grown with 0.1 mcg.ml ADRIAMYCIN, Table 2, ADR value marked *: single test
Procedure: as §1, §2, §3, §4, §5
as §6, with “nm. […]” for “nm.”

[13] = system: Lewis lung carcinoma; assay: In vivo activity against Lewis lung carcinoma (subcutaneous); design: species or system mouse; settings: IP days 1-9, tumor weight day 14
Procedure: Compound A and the compound of Example 8 were also tested against solid tumors, namely Lewis lung carcinoma on the one hand and C-26 colon adenocarcinoma and M5076 ovadan sarcoma on the other. Lewis lung carcinoma was inoculated subcutaneously to flanks of mice on day 0. The compound being tested (Compound A) was administered intraperitoneally (IP) from day 1 to day 9 for a total of nine injections. Tumor weights were measured on day 14 and drug efficacy assessed based on reduction of mean tumor mass (MTM), expressed as the percent ratio of treated (T) to control (C) MTM's. Compounds having % MTM(T/C) values of less than or equal to 40 are considered to have significant activity. These values are shown below in Table 4.

[14] = read-out: In Vitro Cytotoxicity (IC50), A549, Table 1, three day MTT assay
[15] = read-out: In Vitro Cytotoxicity (IC50), A549, Table 2, ADR: average of two tests
[16] = read-out: In Vitro Cytotoxicity (IC50), HT-29, Table 2, ADR: average of two tests
[17] = Table 2, ADR value marked *: single test

Structure (SMILES) | IC50 [1, 14] [µg/mL] | IC50 [1, 15] [µg/mL] | IC50 [2] [µg/mL] | IC50 [3, 16] [µg/mL] | IC50 ([4]; Table 1, three day MTT assay) [µg/mL] | IC50 [5] [µg/mL] | IC50 [6] [µg/mL] | IC50 [7] [µg/mL] | solubility [11] [µg/mL] | IC50 [4, 17] [µg/mL] | IC50 [12] [µg/mL] | other results
CCC[C@H](N)C(=O)NC1CCN(c2c(F)cc3c(=O)c(C(=O)O)cn4c3c2Oc2ccccc2-4)C1 (stereo partly drawn) [Example 8, 1-(3-norvalylaminopyrrolidin-1-yl)-2-fluoro-4-oxo-4H-quino[2,3,4-i,j][1,4]benzoxazine-5-carboxylic acid hydrochloride] | 0.512 | 0.591 | 0.075 | 0.195 | < 0.05 | 0.0395 | 0.394 | 0.0271 | 10700 | – | – | % MST(T/C) ([8]; 3.9 mg/kg IP once daily): 177.3%; % MST(T/C) ([8]; 7.81 mg/kg IP once daily): 200.0%; % MST(T/C) ([8]; 15.62 mg/kg IP once daily): 209.1%; % MST(T/C) ([8]; 31.25 mg/kg IP once daily): 63.6%; C-26 % MST(T/C) ([9]; first trial): 52.3%; C-26 % MST(T/C) ([9]; second trial): 43.9%; M5706 % MST(T/C) ([10]; dose 5): 148.4%; M5706 % MTM(T/C) ([10]; dose 5): 62%; M5706 % MST(T/C) ([10]; dose 10): 154.4%; M5706 % MTM(T/C) ([10]; dose 10): 49%; M5706 % MST(T/C) ([10]; dose 20): 138.1%; M5706 % MTM(T/C) ([10]; dose 20): 22%; M5706 % MST(T/C) ([10]; dose 40): 39.1%
COc1cccc2c1C(=O)c1c(O)c3c(c(O)c1C2=O)C[C@@](O)(C(=O)CO)C[C@@H]3O[C@H]1C[C@H](N)[C@H](O)[C@H](C)O1 [ADR, doxorubicin hydrochloride, reference compound] | – | 0.313 | 0.038 | 0.285 | 0.016 | 0.0022 | 2.59 | 0.005 | – | 0.025 | 1.9 | In Vitro Cytotoxicity (IC50) ([4]; P388-D1, Table 1, three day MTT assay, 4320 min, hydrochloride): 0.010
Cc1ccc2c(c1)Oc1c(N3CCC(NC(=O)[C@H](C)N)C3)c(F)cc3c(=O)c(C(=O)O)cn-2c13 (stereo partly drawn) [Example 9, 1-(3-alanylaminopyrrolidin-1-yl)-2-fluoro-9-methyl-4-oxo-4H-quino[2,3,4-i,j][1,4]benzoxazine-5-carboxylic acid hydrochloride] | – | 0.23 | – | 0.075 | – | 0.062 | 0.19 | 0.048 | – | 0.081 | 0.18 | –
Cc1ccc2c(c1)Oc1c(N3CCC(N)C3)c(F)cc3c(=O)c(C(=O)O)cn-2c13 (stereo not drawn) [Example 6, 1-(3-aminopyrrolidin-1-yl)-2-fluoro-9-methyl-4-oxo-4H-quino[2,3,4-i,j][1,4]benzoxazine-5-carboxylic acid hydrochloride] | 0.13 | 0.23 | – | 0.076 | 0.067 | 0.071 | 0.2 | 0.056 | – | 0.08 | 0.2 | IC50 ([3]; read-out: In Vitro Cytotoxicity (IC50), HT-29, Table 1, three day MTT assay): 0.049 µg/mL
NC1CCN(c2c(F)cc3c(=O)c(C(=O)O)cn4c3c2Oc2ccccc2-4)C1 (stereo not drawn) [Compound A, 1-(3-aminopyrrolidin-1-yl)-2-fluoro-4-oxo-4H-[2,3,4-i,j][1,4]benzoxazine-5-carboxylic acid] | – | 0.26 (≈ 0.682 µM) | – | 0.1 (≈ 0.262 µM) | – | 0.019 (≈ 0.0498 µM) | 0.12 (≈ 0.315 µM) | 0.021 (≈ 0.0551 µM) | 8800 (≈ 23100 µM) | – | – | % MST(T/C) ([8]; 6.25 mg/kg IP once daily): 160%; % MST(T/C) ([8]; 12.5 mg/kg IP once daily): 165%; % MST(T/C) ([8]; 25 mg/kg IP once daily): 170%; % MST(T/C) ([8]; 50 mg/kg IP once daily): 180%; Lewis Lung % MTM(T/C) ([13]; dose 6.25): 68%; Lewis Lung % MTM(T/C) ([13]; dose 12.5): 67%; Lewis Lung % MTM(T/C) ([13]; dose 25): 47%; Lewis Lung % MTM(T/C) ([13]; dose 50): 41%
